# Measurements reported in the PolyMetriX glass transition set.
# ± gives the standard deviation of the reports.
row,SMILES,glass transition temperature [°C]
1,*Nc1cc([N+](=O)[O-])c(NC(=O)CCCCCCCCCCCCC(*)=O)cc1/C=C/c1ccc(N(C)C)cc1 (repeat unit),125.00
2,*c1cccc(P(=O)(c2cccc(-n3c(=O)c4c(-c5ccccc5)c5c(=O)n(*)c(=O)c5c(-c5ccccc5)c4c3=O)c2)c2cc(C(F)(F)F)cc(C(F)(F)F)c2)c1 (repeat unit),320.00
3,*/C=C/c1sc(/C=C/c2ccc3c4ccc(*)cc4n(CC(CC)CCCC)c3c2)c(CC(CC)CCCC)c1CC(CC)CCCC (repeat unit),60.00
4,*CC1CC(*)OCO1 (repeat unit) [Poly(vinyl formal) ],104 ± 21
5,*c1ccc2oc(C3CCC(c4nc5cc(C(*)(C(F)(F)F)C(F)(F)F)ccc5o4)CC3)nc2c1 (repeat unit),271.00
6,*C(=O)Nc1ccc(Oc2ccc(C(c3ccc(Oc4ccc(NC(=O)c5ccc6c(c5)C(=O)N(c5ccc(Oc7ccc8ccc(Oc9ccc(N%10C(=O)c%11ccc(*)cc%11C%10=O)cc9)cc8c7)cc5)C6=O)cc4)cc3)(C(F)(F)F)C(F)(F)F)cc2)cc1 (repeat unit),250.00
7,*CC(*)c1ccc(COCCO)cc1 (repeat unit),46.00
8,*C/C=C/C[Si](*)(C=C)C=C (repeat unit),-65.00
9,*CC(OC(C)=O)C(COC(=O)O*)OC(C)=O (repeat unit),58.60
10,*CCc1cc(C)c(*)cc1C (repeat unit),100.00
11,*CC(*)(CC(=O)OC)C(=O)OC12CC3CC(C)(CC(C)(C3)C1)C2 (repeat unit),144.00
12,*CC(*)c1ccc(COCCCC)cc1 (repeat unit),10.00
13,*CC(F)(F)C(F)(F)C(F)(F)COC(=O)c1cccc(C(=O)O*)c1OCCCCC (repeat unit),17.00
14,*OC1C(CO)OC(*)C(O)C1O (repeat unit),332.00
15,*CCC1C(=O)N(CCC)C(=O)C1* (repeat unit),90.40
16,*CCOC(=O)CCCCC(=O)O* (repeat unit) [Poly(ethylene adipate)],-48.83 ± 8
17,*c1ccc(Oc2ccc(Oc3ccc(-c4ccc(Oc5ccc(Oc6ccc(C7(*)OC(=O)c8ccccc87)cc6)cc5)c5ccccc45)c4ccccc34)cc2)cc1 (repeat unit),198.00
18,*CC1CC(*)OC(CCC)O1 (repeat unit) [Poly(vinyl butyral)],54.42 ± 9.2
19,*CC(*)C(=O)NCCC[N+](C)(C)C (repeat unit),57.00
20,*C1CCCC(S(*)(=O)=O)C1 (repeat unit),108.00
21,*CC(*)OC(=O)CC(C)(C)c1ccccc1 (repeat unit),20.00
22,*CCN(*)C(=O)c1c(F)c(F)cc(F)c1F (repeat unit),122.00
23,*/C=C(/*)c1c(F)c(F)c(CCCC)c(F)c1F (repeat unit),110.00
24,*CCOCCOC(=O)C(CCCCC)C(=O)O* (repeat unit),-47.00
25,*c1ccc(Oc2ccc(C3(c4ccc(Oc5ccc(-c6nnc(*)c7c(-c8ccccc8)c(-c8ccc9ccccc9c8)c(-c8ccc9ccccc9c8)c(-c8ccccc8)c67)cc5)cc4)c4ccccc4-c4ccccc43)cc2)cc1 (repeat unit),334.00
26,*c1ccc2c(c1)C(=O)N(c1ccc(N(c3ccc(/C=C/c4ccc([N+](=O)[O-])cc4)cc3)c3ccc(N4C(=O)c5ccc(C(*)(C(F)(F)F)C(F)(F)F)cc5C4=O)cc3)cc1)C2=O (repeat unit),290.00
27,*CC(*)OC(=O)C(C)(C)C(C)C(C)C (repeat unit),55.00
28,*CCCCCC(=O)S* (repeat unit),19.00
29,*CC(*)(C)C(=O)OCCC1CCCCC1 (repeat unit),110.00
30,*C(=O)OCCN(CCOC(=O)c1ccc2c(c1)C(=O)N(c1c(C)cc(Cc3cc(C)c(N4C(=O)c5ccc(*)cc5C4=O)c(C)c3)cc1C)C2=O)c1ccc(/N=N/c2ccc([N+](=O)[O-])cc2C#N)cc1 (repeat unit),216.00

# Second part, the compound after the results:
row,glass transition temperature [°C],SMILES
1,158.00,*Nc1ccc(CC(C)(C)NC(=O)CCC(*)=O)cc1 (repeat unit)
2,185.00,*c1ccc(Oc2ccccc2Oc2ccc(N3C(=O)c4ccc(Oc5ccccc5Oc5ccc6c(c5)C(=O)N(*)C6=O)cc4C3=O)cc2C(F)(F)F)c(C(F)(F)F)c1 (repeat unit)
3,166.00,*Oc1ccc(OC(=O)c2ccc(Oc3ccc(C(*)=O)cc3)cc2)c2ccccc12 (repeat unit)
4,262.00,*c1ccc([Si](c2ccccc2)(c2ccccc2)c2ccc(-c3nnc(*)o3)cc2)cc1 (repeat unit)
5,240.00,*CC(*)c1ccc(B(Oc2cccc3cccnc23)c2ccc(C(C)(C)C)cc2)cc1 (repeat unit)
6,100.00,*CCCCCCCCCCNC(=O)c1ccc(C(=O)N*)c(Sc2ccccc2)c1 (repeat unit)
7,73.00,*CC(*)(C)C(=O)OCCCCCCOc1ccc(C(=O)Oc2ccc(-c3cccc(OC(=O)c4ccc(OC(=O)c5ccc(OCCCCCCCCCCCC)cc5)cc4)c3)cc2)cc1 (repeat unit)
8,116.00,*c1cccc(OCCCCCCCCCCCCOc2cccc(N3C(=O)c4ccc(-c5ccc6c(c5)C(=O)N(*)C6=O)cc4C3=O)c2)c1 (repeat unit)
9,86.00,*c1ccc(C(=O)OCCCCCCCCOC(=O)c2ccc(-c3nnc(*)s3)cc2)cc1 (repeat unit)
10,88.00,*Oc1ccc(OC(=O)c2ccc(OCCCCCCCCCCOc3ccc(C(*)=O)cc3)cc2)cc1S(=O)(=O)c1ccccc1 (repeat unit)
11,83.00,*Oc1ccc(CNC(=O)c2cccc(C(=O)NCc3ccc(OC4COC5C(*)COC45)cc3)c2)cc1 (repeat unit)
12,283.00,*C(=O)Nc1ccc(Oc2ccc(-c3ccc(Oc4ccc(NC(=O)c5ccc6c(c5)C(=O)N(c5ccc(Oc7ccc(C(C)(C)c8ccc(Oc9ccc(N%10C(=O)c%11ccc(*)cc%11C%10=O)cc9)cc8)cc7)cc5)C6=O)cc4)cc3)cc2)cc1 (repeat unit)
13,273.50,*c1ccc(Oc2ccc(C(=O)c3ccc(Oc4ccc(-c5c6c(c(*)c7ccccc57)C(=O)N(c5ccccc5)C6=O)cc4)cc3)cc2)cc1 (repeat unit)
14,201.00,*c1ccc(Oc2ccc(Oc3ccc(N4C(=O)c5ccc(Oc6ccc(Sc7ccc(Oc8ccc9c(c8)C(=O)N(*)C9=O)cc7)cc6)cc5C4=O)cc3)cc2)cc1 (repeat unit)
15,232.00,*c1ccc(-c2ccc(N(c3ccc(OC)cc3)c3ccc4ccc(N(*)c5ccc(OC)cc5)cc4c3)cc2)cc1 (repeat unit)
16,233.00,*c1ccc2c(c1)C(=O)N(c1ccc(Sc3ccc(Sc4ccc(Sc5ccc(N6C(=O)c7ccc(C(*)(C(F)(F)F)C(F)(F)F)cc7C6=O)cc5)cc4)cc3)cc1)C2=O (repeat unit)
17,225.00,*Cc1cc(C)c(CNC(=O)c2ccc(C(=O)N*)cc2)cc1C (repeat unit)
18,250.00,*/C(=C(/*)c1ccc([Si](C(C)C)(C(C)C)C(C)C)cc1)c1ccccc1 (repeat unit)

row,glass transition temperature [°C],SMILES
1,-2.00,*O[Si](C)(C)c1cccc(C(F)(F)C(F)(F)c2cccc([Si](*)(C)C)c2)c1 (repeat unit)
2,281.00,*Oc1ccc(NC(=O)c2ccc(C(=O)Nc3ccc(Oc4ccc(C5(c6ccc(*)cc6)CC6CCC5C6)cc4)cc3)cc2)cc1 (repeat unit)
3,197.00,*Oc1ccc(C2(c3ccc(OC(=O)CCCC(*)=O)cc3)c3cc(OC)ccc3-c3ccc([N+](=O)[O-])cc32)cc1 (repeat unit)
4,46.00,*Oc1ccc(CC(NC(=O)Cc2ccc(OC(=O)COCC(*)=O)cc2)C(=O)OCCCCCC)cc1 (repeat unit)
5,197.00,*Oc1ccc(S(=O)(=O)c2ccc(Oc3c(C)cc(C(c4cc(C)c(*)c(C)c4)(C(F)(F)F)C(F)(F)F)cc3C)cc2[Si](C)(C)C)c([Si](C)(C)C)c1 (repeat unit)
6,32.40,*O[Si](*)(C)CCCCCCCCCCC(=O)Oc1ccc(C(=O)Oc2ccc(-c3ccc(OC(=O)CCCCC(=O)OC4CC(C)CCC4C(C)C)cc3)cc2)cc1 (repeat unit)
7,97.50,*Oc1cc(CCCC)cc(OC(=O)c2cccc(C(*)=O)c2)c1 (repeat unit)
8,235.00,*Oc1ccc(S(=O)(=O)c2ccc(OC(=O)c3ccc([Si](C)(C)c4ccc(C(*)=O)cc4)cc3)cc2)cc1 (repeat unit)
9,39.00,*CNC(=O)OCc1ccc(COCc2ccc(COC(=O)NCc3ccc(C(C)(C)c4ccc(*)o4)o3)o2)o1 (repeat unit)
10,263.00,*Oc1ccc(S(=O)(=O)c2ccc(-c3ccc(S(=O)(=O)c4ccc(Oc5ccc(-c6ccc(-c7ccc(*)cc7)cc6)cc5)cc4)cc3)cc2)cc1 (repeat unit)
11,134.00,*Oc1ccc(OC(=O)c2ccc(C(*)=O)cc2Sc2ccc(C)cc2)cc1 (repeat unit)
12,253.00,*c1cccc(C(=O)Nc2ccc(Oc3ccc(NC(=O)c4cccc(N5C(=O)c6ccc(-c7ccc8c(c7)C(=O)N(*)C8=O)cc6C5=O)c4)cc3)cc2)c1 (repeat unit)
13,200.00,*/C(=C(/*)c1ccc(C(C)(C)C)cc1)c1ccccc1 (repeat unit)
14,135.00,*Nc1ccc(NC(=O)CCCC(*)=O)cc1 (repeat unit)
15,83.50,*CCOCCOCCOc1ccc(/C=C/c2ccc(/C=C/c3ccc(O*)c4ccccc34)cc2)c2ccccc12 (repeat unit)
16,135.00,*CCCCCOc1cccc(NC(=O)c2ccc(C(=O)Nc3cccc(O*)c3)cc2)c1 (repeat unit)
17,73.00,*CC(*)(C)C(=O)NC(=O)OC(C)COc1ccc(S(=O)(=O)c2ccc(OCC(C)O)cc2)cc1 (repeat unit)
18,240.00,*C(=O)Nc1cccc(NC(=O)c2ccc(N3C(=O)c4ccc(*)cc4C3=O)cc2)c1 (repeat unit)
